# Results reported in patent US4217305A, “Phenylethanolamine derivatives” (Yamanouchi Pharmaceutical Co., Ltd., priority 1977, dated 1980).
# Key:
# Type in all cases: in vivo
# α-Adrenergic = α-Adrenergic blocking action: antagonism of hypertensive response to phenylephrine in anesthetized rats; details: Rattus norvegicus, iv; urethane anesthetized, pentolinium treated rats; phenylephrine 10 μg/Kg i.v.; read-out: α-blocking (Rat) ED50
# Experimental: A. α-Adrenergic blocking action: (a) The blood pressure was measured in rats anesthetized with urethane and treated with pentolinium.
# β-Adrenergic = β-Adrenergic blocking action: antagonism of isoproterenol induced tachycardia in rats; details: Rattus norvegicus, iv; reserpine pretreated, pentobarbital anesthetized rats; isoproterenol 0.1 μg/Kg iv.
# Experimental: Bilateral vagotomy was performed at the neck. The effects of the test samples to antagonize the isoproterenol (0.1 μg/Kg iv.) induced tachycardia were measured and the results were shown in Table I.
# [1] = system: spontaneously hypertensive rats; assay: Antihypertensive effects in spontaneously hypertensive rats, oral administration; details: at 10 mg/Kg p.o.; mean ± S.E. of 5 to 10 animals; measured indirectly from the tail
# Experimental: B. Antihypertensive effects in spontaneously hypertensive rats: Oral administration: The systolic blood pressure was measured indirectly from the tail using a programmed electro-sphygmanometer (Nacro Bio-Systems Inc., PE-300) on spontaneously hypertensive rats having a systolic blood pressure of higher than 150 mmHg, the result being shown in Table II.
Structure (SMILES),ED50 (α-Adrenergic) [mg/kg],ED50 (β-Adrenergic) [mg/kg],antihypertensive effect: change in systolic blood pressure [1] [mmHg]
"COc1ccccc1OCC(C)NCC(O)c1ccc(O)c(S(N)(=O)=O)c1.Cl (stereo not drawn) [Example 43, 2-Hydroxy-5-{1-hydroxy-2-[2-(2-methoxyphenoxy)-1-methylethylamino]ethyl}benzenesulfonamide hydrochloride]",0.0091,0.53,-33 ± 6.9
"COc1ccccc1OCCNCC(O)c1ccc(C)c(S(N)(=O)=O)c1.Cl (stereo not drawn) [Example 47, 5-{1-Hydroxy-2-[2-(2-methoxyphenoxy)ethylamino]ethyl}-2-methylbenzenesulfonamide hydrochloride]",0.034,0.16,-35 ± 6.4
